The values below come from US20090302265A1, “Supercooling promoting agent” (priority 2006, published 2009).

Data set [1] has as its system dead bacterial cells of ice nucleation active bacteria (Erwinia ananas). Description: supercooling activity (droplet freezing on cooled copper plate, temperature at which 50% of droplets are frozen). The conditions noted are these: cooling 0.2° C./min; for supercooling activity: 0.1 mg/mL test compound, otherwise as example 1; for supercooling activity (difference of freezing point vs buffer with ice nucleation bacteria only): 0.5 mg/mL test sample, 50 mM potassium phosphate buffer pH 7.0, 2 μL droplets. It is filed as physicochemical. The protocol:
The supercooling activity (or represented as inhibiting activity of ice nucleus formation) is the value measured by the following method. […] A large number of 2 μL droplets of the solution are put on a cupper plate, which is temperature-controllable. Then, the cupper plate is cooled at the rate of 0.2° C./min, the number of frozen droplets are counted macroscopically and the temperature, wherein 50% of droplets are frozen, is defined as freezing point. The supercooling activity is defined as the difference (° C.) between the freezing point of solution containing test sample and ice nucleation active bacteria, and that of solution containing only ice nucleation bacteria and buffer solution.
The supercooling activities of these samples were measured by the following methods. After a buffer solution (50 mM potassium phosphate buffer, pH 7.0) containing dead bacterial cells (Wako pure chemical industries Ltd.,) of ice nucleation active bacteria (Erwinia ananas) mixed with 0.5 mg/mL of a test sample, 2 μL droplets of the solution are put on a cupper plate, which is temperature-controllable. Then, the cupper plate is cooled at the rate of 0.2° C./min, the number of frozen droplets are counted macroscopically and the temperature, wherein 50% of droplets are frozen, is defined as freezing point. The difference (° C.) between the freezing point and that of the buffer solution was measured.

Another data set concerns pig liver cells. Description: viability of pig liver cells after supercooled storage (trypan blue staining). It is filed as cell-based. The note with it: 0.01% by weight in UW liquid with 1% by volume DMSO; −5° C. and −8° C.; 1, 4 and 7 days; FIG. 8. The protocol: The storage liquid was prepared by adding 0.01% by weight of kaempferol-7-glucoside (compound 2 (Cj5)), Extrasynthese Co.) and 1% by volume of DMSO (Wako pure chemical industries Ltd., guaranteed reagent) to a buffer solution (UW liquid, 100 mM lactobionic acid, 25 mM KH2PO4, 5 mM MgSO4, 30 mM raffinose, 2.5 mM adenosine, 3 mM GSH, 1 mM allopurinol, 0.25 mg/mL streptomycin, 10 UI/mL penicillin).
For comparison, a mixed solution (UW liquid) without kaempferol-7-O-glucoside and DMSO was prepared.
The viability of cells was evaluated by trypan blue (GIBCO) staining, when pig liver cells 5×10^6 cells/mL were dipped in 0.5 cc of the above storage liquid, supercooled at −5° C. and at −8° C., and stored for 1, 4 and 7 days.

Data set [2] has as its system cranberry shoot apexes (buds). Description: survival of cranberry shoot apexes after vitrification in liquid nitrogen and thawing. The conditions noted are these: 0.05% by weight in 75% vitrification liquid (75% PVS2); liquid nitrogen overnight, thawed at room temperature; FIG. 9A vs 9B. Here is the method: As a vitrification liquid, 75% dilution solution of PVS2 liquid (22.5% by volume glycerol, 11.25% by volume of ethyleneglycol, 11.25% by volume of DMSO, […], the remainder was Murashige & Skoog medium, DUCHEFA BIOCHEMIE BV) supplemented with 0.05% by weight of kaempferol-7-O-glucoside (compound 2, Extrasynthese Co.) was used (hereinafter referred to as “75% vitrification liquid”).
For comparison, a mixed solution without kaempferol-7-O-glucoside was prepared. Shoot apexes (buds) are isolated from cranberry (subcultured in Hokkaido University, Graduate School of Agriculture) and dipped in the above mixed solution at room temperature.
On the other hand, survival of shoot apexes, which were dipped in 75% vitrification liquid containing kaempferol-7-O-glucoside at room temperature for a specified loading time, put into liquid nitrogen, frozen for overnight, and then thawed at room temperature, is shown in frozen batch of FIG. 9A. Similarly, survival of the apexes, which were dipped in a vitrification liquid without kaempferol-7-O-glucoside and frozen, is shown in frozen batch of FIG. 9B.

On to `O=c1cc(-c2ccc(O)cc2)oc2cc(O[C@@H]3O[C@H](CO)[C@@H](O)[C@H](O)[C@H]3O)cc(O)c12` [compound 6, apigenin 7-O-β-D-glucopyranoside], for which, in data set [1], the supercooling activity was −12.0 °C. In the case of `O=c1c(OC2OC(CO)[C@@H](O)C(O)[C@H]2O)c(-c2ccc(O)cc2)oc2cc(O)cc(O)c12` (stereo partly drawn) [compound 4, kaempferol-3-O-β-glucoside], the “supercooling activity (difference of freezing point vs buffer with ice nucleation bacteria only)” value in data set [1] is −2.5 °C.

For the compound `C[C@@H]1O[C@@H](O[C@H]2[C@H](Oc3cc(O)c4c(=O)cc(-c5ccc(O)cc5)oc4c3)O[C@H](CO)[C@@H](O)[C@@H]2O)[C@H](O)[C@H](O)[C@H]1O` [compound 8, apigenin 7-O-β-neohesperidoside], the supercooling activity in data set [1] is −1.8 °C. With `O=c1c(O)c(-c2ccc(O)cc2)oc2cc(OC3OC(CO)[C@@H](O)C(O)[C@H]3O)cc(O)c12` (stereo partly drawn) [compound 2, kaempherol-7-O-β-glucoside], the “viability of cells after supercooled storage” value with pig liver cells is reported as “enables storage of viable animal cells for long-term”. In data set [1], the “supercooling activity (difference of freezing point vs buffer with ice nucleation bacteria only)” value is −7.7 °C. For the same compound, the “survival of shoot apexes after freezing (damage due to freezing)” value in data set [2] was “significantly reduced the damage due to freezing”. With `O=c1cc(-c2ccccc2)oc2cc(O[C@@H]3O[C@H](CO)[C@@H](O)[C@H](O)[C@H]3O)cc(O)c12` [compound 5, Chrycin-7-O-β-D-glucopyranoside], the supercooling activity in data set [1] was −4.5 °C. For `COc1c(O)cc(O)c2c(=O)c(OC3OC(CO)[C@@H](O)C(O)[C@H]3O)c(-c3ccc(O)cc3)oc12` (stereo partly drawn) [compound 3, 8-methoxykaempferol-3-O-β-glucoside], in data set [1], the “supercooling activity (difference of freezing point vs buffer with ice nucleation bacteria only)” value was −0.2 °C.

As to `O=c1c(OC2OC(CO)[C@@H](O)C(O)[C@H]2O)c(-c2ccc(O)c(O)c2)oc2cc(O)cc(O)c12` (stereo partly drawn) [compound 1, quercetin-3-O-β-glucoside], in data set [1], the “supercooling activity (difference of freezing point vs buffer with ice nucleation bacteria only)” value was −1.8 °C. Turning to `O=c1cc(-c2ccc(O[C@@H]3O[C@H](CO)[C@@H](O)[C@H](O)[C@H]3O)cc2)oc2cc(O[C@@H]3O[C@H](CO)[C@@H](O)[C@H](O)[C@H]3O)cc(O)c12` [compound 7, apigenin 4′, 7-di-O-β-D-glucopyranoside], in data set [1], the supercooling activity was −4.9 °C.
